According to ChEMBL document CHEMBL3217570, “A class of novel AA-Trp-Trp-OBzl: synthesis, in vitro anti-proliferation, in vivo anti-tumor action, and intercalation mechanism” (Medchemcomm, 2011):
Residues, ends and D or L forms follow the SMILES beside them. *: point of attachment. OBn = c1ccc(CO*)cc1

What was measured:
Mus musculus [1] = experiment: Toxicity in mouse S180 cells allografted ICR mouse assessed as increase of body weight at 8.9 mg/kg, ip qd for 7 days relative to control; type: organism-based, CCRF S-180; design: dose 8.9 mg/kg, route intraperitoneal; settings: in vivo, 168 h
CCRF S-180 [2] = experiment: Antiproliferative activity against mouse S180 cells after 48 hrs by MTT assay; type: functional, cell-based; settings: CCRF S-180, 48 h
H22 = experiment: Antiproliferative activity against mouse H22 cells after 48 hrs by MTT assay; type: functional, cell-based; settings: H22, 48 h
K562 = experiment: Antiproliferative activity against human K562 cells after 48 hrs by MTT assay; type: functional, cell-based; settings: K562, 48 h
Mus musculus [3] = experiment: Toxicity in mouse S180 cells allografted ICR mouse assessed as liver weight at 8.9 mg/kg, ip qd for 7 days relative to control; type: organism-based, CCRF S-180; design: dose 8.9 mg/kg, route intraperitoneal; settings: in vivo, 168 h
Mus musculus [4] = experiment: Toxicity in mouse S180 cells allografted ICR mouse assessed as kidney weight at 8.9 mg/kg, ip qd for 7 days relative to control; type: organism-based, CCRF S-180; design: dose 8.9 mg/kg, route intraperitoneal; settings: in vivo, 168 h
CCRF S-180 [5] = experiment: Antitumor activity against mouse S180 cells allografted in ICR mouse assessed as tumor growth inhibition at 8.9 mg/kg, ip qd for 7 days relative to control; type: functional; settings: CCRF S-180, ip, 168 h, route intraperitoneal, read-out: TGI
B16 = experiment: Antiproliferative activity against mouse B16 cells after 48 hrs by MTT assay; type: functional, cell-based; settings: B16, 48 h
Mus musculus [6] = experiment: Toxicity in mouse S180 cells allografted ICR mouse assessed as spleen index at 8.9 mg/kg, ip qd for 7 days relative to control; type: organism-based, CCRF S-180; design: dose 8.9 mg/kg, route intraperitoneal; settings: in vivo, 168 h
HepG2 = experiment: Antiproliferative activity against human HepG2 cells after 48 hrs by MTT assay; type: functional, cell-based; settings: HepG2, 48 h
Mus musculus [7] = experiment: Toxicity in mouse S180 cells allografted ICR mouse assessed as brain weight at 8.9 mg/kg, ip qd for 7 days relative to control; type: organism-based, CCRF S-180; design: dose 8.9 mg/kg, route intraperitoneal; settings: in vivo, 168 h
Mus musculus [8] = experiment: Toxicity in ICR mouse assessed as changes in organs up to 500 mg/kg, ip after 7 days by necropsy analysis; type: organism-based; design: dose 500 mg/kg, route intraperitoneal; settings: in vivo, 168 h
[9] = Acute toxicity in ip dosed ICR mouse after 7 days; type: organism-based; settings: in vivo
Mus musculus [10] = experiment: Toxicity in ICR mouse assessed as mortality up to 500 mg/kg, ip after 7 days; type: organism-based; design: dose 500 mg/kg, route intraperitoneal; settings: in vivo, 168 h
Mus musculus [11] = experiment: Neurotoxicity in ICR mouse assessed as neurotoxic behavior up to 500 mg/kg, ip after 7 days; type: toxicity, organism-based; design: dose 500 mg/kg, route intraperitoneal; settings: in vivo, 168 h

IC50 (CCRF S-180 [2]) [µM]	IC50 (K562) [µM]	IC50 (B16) [µM]	IC50 (HepG2) [µM]	SMILES	Activity (Mus musculus [1])	IC50 (H22) [µM]	Activity (Mus musculus [3])	Activity (Mus musculus [4])	inhibition in vivo at 8.9 mg/kg (CCRF S-180 [5]) [%]	Activity (Mus musculus [6])	Activity (Mus musculus [7])	Activity (Mus musculus [8])	LD50 at 168 h [9] [mg/kg]	Activity (Mus musculus [10])	Activity (Mus musculus [11])
72.7	116	132	49.9	C[C@H](N)C(=O)N[C@@H](Cc1c[nH]c2ccccc12)C(=O)N[C@@H](Cc1c[nH]c2ccccc12)C(=O)OCc1ccccc1 (H-Ala-Trp-Trp-OBn)	Toxic	84.9	Non-toxic	Non-toxic	-11.4	Non-toxic	Non-toxic				
79.9	88.6	159	58.3	NCC(=O)N[C@@H](Cc1c[nH]c2ccccc12)C(=O)N[C@@H](Cc1c[nH]c2ccccc12)C(=O)OCc1ccccc1 (H-Gly-Trp-Trp-OBn)	Toxic	51.1	Non-toxic	Non-toxic	-6.51	Non-toxic	Non-toxic				
36.7	37.9	53.4	41.5	CC(C)C[C@H](N)C(=O)N[C@@H](Cc1c[nH]c2ccccc12)C(=O)N[C@@H](Cc1c[nH]c2ccccc12)C(=O)OCc1ccccc1 (H-Leu-Trp-Trp-OBn)	Toxic	36	Non-toxic	Non-toxic	13.8	Non-toxic	Non-toxic				
155	173	182	155	C[C@@H](O)[C@H](N)C(=O)N[C@@H](Cc1c[nH]c2ccccc12)C(=O)N[C@@H](Cc1c[nH]c2ccccc12)C(=O)OCc1ccccc1 (H-Thr-Trp-Trp-OBn)	Toxic	153	Non-toxic	Non-toxic	-7.66	Non-toxic	Non-toxic				

Second part, the molecule before the results:

SMILES	IC50 (CCRF S-180 [2]) [µM]	IC50 (K562) [µM]	IC50 (B16) [µM]	IC50 (HepG2) [µM]	Activity (Mus musculus [1])	IC50 (H22) [µM]	Activity (Mus musculus [3])	Activity (Mus musculus [4])	inhibition in vivo at 8.9 mg/kg (CCRF S-180 [5]) [%]	Activity (Mus musculus [6])	Activity (Mus musculus [7])	Activity (Mus musculus [8])	LD50 at 168 h [9] [mg/kg]	Activity (Mus musculus [10])	Activity (Mus musculus [11])
N=C(N)NCCC[C@H](N)C(=O)N[C@@H](Cc1c[nH]c2ccccc12)C(=O)N[C@@H](Cc1c[nH]c2ccccc12)C(=O)OCc1ccccc1 (H-Arg-Trp-Trp-OBn)	29.4	27.2	37.4	38.1	Toxic	27.5	Non-toxic	Non-toxic	45.1	Non-toxic	Non-toxic	Non-toxic	> 500	Non-toxic	Non-toxic
N[C@@H](CC(=O)O)C(=O)N[C@@H](Cc1c[nH]c2ccccc12)C(=O)N[C@@H](Cc1c[nH]c2ccccc12)C(=O)OCc1ccccc1 (H-Asp-Trp-Trp-OBn)	164	170	157	122	Toxic	107	Non-toxic	Non-toxic	-8.85	Non-toxic	Non-toxic				
N[C@@H](CS)C(=O)N[C@@H](Cc1c[nH]c2ccccc12)C(=O)N[C@@H](Cc1c[nH]c2ccccc12)C(=O)OCc1ccccc1 (H-Cys-Trp-Trp-OBn)	26.2	20.6	32.8	35	Toxic	24.7	Non-toxic	Non-toxic	48.4	Non-toxic	Non-toxic	Non-toxic	> 500	Non-toxic	Non-toxic
NC(=O)CC[C@H](N)C(=O)N[C@@H](Cc1c[nH]c2ccccc12)C(=O)N[C@@H](Cc1c[nH]c2ccccc12)C(=O)OCc1ccccc1 (H-Gln-Trp-Trp-OBn)	27.6	24.6	31.8	26.2	Toxic	25.1	Non-toxic	Non-toxic	43	Non-toxic	Non-toxic	Non-toxic	> 500	Non-toxic	Non-toxic
N[C@@H](CCC(=O)O)C(=O)N[C@@H](Cc1c[nH]c2ccccc12)C(=O)N[C@@H](Cc1c[nH]c2ccccc12)C(=O)OCc1ccccc1 (H-Glu-Trp-Trp-OBn)	16.6	14.3	21.4	22.3	Toxic	14.7	Non-toxic	Non-toxic	78.8	Non-toxic	Non-toxic	Non-toxic	> 500	Non-toxic	Non-toxic
N[C@@H](Cc1cnc[nH]1)C(=O)N[C@@H](Cc1c[nH]c2ccccc12)C(=O)N[C@@H](Cc1c[nH]c2ccccc12)C(=O)OCc1ccccc1 (H-His-Trp-Trp-OBn)	83.3	101	100	97.2	Toxic	95.5	Non-toxic	Non-toxic	11.9	Non-toxic	Non-toxic				
NCCCC[C@H](N)C(=O)N[C@@H](Cc1c[nH]c2ccccc12)C(=O)N[C@@H](Cc1c[nH]c2ccccc12)C(=O)OCc1ccccc1 (H-Lys-Trp-Trp-OBn)	33	34.5	57.4	25.9	Toxic	33	Non-toxic	Non-toxic	15	Non-toxic	Non-toxic				
O=C(N[C@@H](Cc1c[nH]c2ccccc12)C(=O)N[C@@H](Cc1c[nH]c2ccccc12)C(=O)OCc1ccccc1)[C@@H]1CCCN1 (H-Pro-Trp-Trp-OBn)	76	91.8	94	91.7	Toxic	91.5	Non-toxic	Non-toxic	12.5	Non-toxic	Non-toxic				
N[C@@H](Cc1c[nH]c2ccccc12)C(=O)N[C@@H](Cc1c[nH]c2ccccc12)C(=O)N[C@@H](Cc1c[nH]c2ccccc12)C(=O)OCc1ccccc1 (H-Trp-Trp-Trp-OBn)	142	164	162	163	Toxic	106	Non-toxic	Non-toxic	-19.1	Non-toxic	Non-toxic				
